Reference: US20050020616A1, “Aryl fused azapolycyclic compounds” (Pfizer Inc, priority 2003, published 2005)
Counter-ions that a name gives are not always drawn.

For O=[N+]([O-])c1ccc2c(c1)C1CCC2CNC1 (stereo not shown) (as salt: hydrochloride), which melting point is on record?
Its melting point is 252 °C.
